Our source for the EC50 and IC50 values is patent US20240400560A1, “BICYCLIC HETEROCYCLIC DERIVATIVE HAVING VIRAL GROWTH INHIBITORY ACTIVITY AND PHARMACEUTICAL COMPOSITION CONTAINING SAME” (Shionogi & Co., Ltd., priority 2021, published 2024).

Some results are limits rather than exact numbers.

Assay [1] has as its system SARS-CoV-2. As to the kind of experiment: Inhibitory activity of cytopathic effect (CPE) in Vero E6/TMPRSS2 cells. Format: cell-based.
Assay [2] addresses SARS-CoV-2 3CL protease (Severe acute respiratory syndrome coronavirus 2, UniProt P0DTD1). As to the kind of experiment: Inhibitory activity test against SARS-CoV-2 3CL proteases. In kind it is biochemical. To be noted: read-out: IC50 (50% SARS-CoV-2 3CL protease inhibitory concentration).
[3] abbreviates: Severe acute respiratory syndrome coronavirus 2, VeroE6/TMPRSS2, 72 h, 50% SARS-CoV-2 infected cell death inhibitory concentration, CellTiter-Glo 2.0 after 3 days culture.
[4] abbreviates: Severe acute respiratory syndrome coronavirus 2, VeroE6/TMPRSS2, 50% SARS-CoV-2 infected cell death inhibitory concentration, class symbols.

Broadly, the EC50 is the concentration giving half of the maximal effect. A higher EC50 goes with a need for much substance. In the case of `COc1cc(-c2cc3c(cc2Cl)NC(=O)C3)cc2c1c(=O)n(-c1cncc(C)c1)c(=O)n2Cc1cc(Cl)c(F)cn1` [Compound I-0059], the EC50 in assay [1] (setting [3]) worked out at 335 nM. Moreover, the IC50 in assay [2] is 2 nM.
`COc1cc(-c2cc3cn[nH]c3cc2Cl)cc2c1c(=O)n(-c1cncc(C)c1)c(=O)n2Cc1ccc(F)c(C#N)c1` [Compound I-0063]: the EC50 in assay [1] (setting [4]) was < 1000 nM. Moreover, in assay [2], the IC50 is < 100 nM.
For the molecule `COc1cc(-c2cc3c(cc2Cl)NC(=O)C3)cc2c1c(=O)n(-c1cncc(Cl)c1)c(=O)n2Cc1cc(F)c(F)c(F)c1` [Compound I-0065], the EC50 in assay [1] (setting [4]) is < 1000 nM. Besides, the IC50 in assay [2] was < 100 nM.
`COc1cc(-c2cc(S(N)(=O)=O)ccc2Cl)cc2c1c(=O)n(-c1cncc(C)c1)c(=O)n2Cc1ccc(F)c(C#N)c1` [Compound I-0066] yielded an EC50 in assay [1] (setting [3]) of 11100 nM. For the same molecule, the IC50 in assay [2] was found to be 5 nM.
For the molecule `COc1cc(-c2cc(C(N)=O)ccc2Cl)cc2c1c(=O)n(-c1cncc(C)c1)c(=O)n2Cc1cc(F)c(F)c(F)c1` [Compound I-0067], the EC50 in assay [1] (setting [4]) is < 1000 nM. Further, the IC50 in assay [2] was < 100 nM.
Consider `COc1cc(-c2cc(NS(C)(=O)=O)ccc2Cl)cc2c1c(=O)n(-c1cncc(C)c1)c(=O)n2Cc1ccc(F)c(C#N)c1` [Compound I-0072], for which, in assay [1] (setting [3]), a half-maximal effect (EC50) was put at 2430 nM. In addition, the IC50 in assay [2] is 10 nM.
`Cc1cncc(-n2c(=O)c3c(F)cc(-c4cc(C(N)=O)ccc4Cl)cc3n(Cc3cc(F)c(F)c(F)c3)c2=O)c1` [Compound I-0073]: in assay [1] (setting [4]), the EC50 was < 1000 nM. The IC50 in assay [2] is < 100 nM.
In assay [1] (setting [3]), `COc1cc(-c2cc(-c3cnn(C)c3)ccc2Cl)cc2c1c(=O)n(-c1cncc(C)c1)c(=O)n2Cc1ccc(F)c(C#N)c1` [Compound I-0074] had an EC50 of 1830 nM. For the same molecule, the IC50 in assay [2] was determined as 12 nM.
The corresponding values for `COCc1ccc(Cl)c(-c2cc(OC)c3c(=O)n(-c4cncc(C)c4)c(=O)n(Cc4ccc(F)c(C#N)c4)c3c2)c1` [Compound I-0076] are 489 nM and 20 nM.
The molecule `COc1cc(-c2cc(C(C)=O)ccc2Cl)cc2c1c(=O)n(Cc1ncn(C)n1)c(=O)n2Cc1cc(F)c(F)c(F)c1` [Compound I-0116] had an EC50 in assay [1] (setting [3]) of 1750 nM. Besides, in assay [2], the IC50 worked out at 12 nM.
For `COc1cc(-c2cc3c(cc2Cl)NC(=O)C3)cc2c1c(=O)n(Cc1ncn(C)n1)c(=O)n2Cc1cc(F)c(F)c(F)c1` [Compound I-0139], in assay [1] (setting [3]), the midpoint of the response, the EC50, lay at 3620 nM. Moreover, the IC50 in assay [2] came to 4.5 nM.
On to `COc1cc(-c2cc3c(cc2Cl)NC(=O)C3)cc2c1c(=O)n(-c1cncc(C)c1)c(=O)n2Cc1cc(C#N)c(F)cc1C` [Compound I-0160], for which the EC50 in assay [1] (setting [3]) was 670 nM. For the same molecule, the IC50 in assay [2] was determined as 0.73 nM.
In assay [1] (setting [3]), `COc1cc(-c2cc3cn[nH]c3cc2Cl)cc2c1c(=O)n(-c1cncc(C)c1)c(=O)n2Cc1cc(C#N)c(F)cc1C` [Compound I-0163] yielded an EC50 of 273 nM. Also, in assay [2], the IC50 worked out at 1.1 nM.
`COc1cc(-c2cc(C#N)ccc2Cl)cc2c1c(=O)n(-c1cncc(C)c1)c(=O)n2Cc1cc(C#N)c(F)cc1C` [Compound I-0164]: the half-maximal effective concentration (EC50) in assay [1] (setting [3]) amounted to 80 nM. Further, the IC50 in assay [2] turned out to be 1.2 nM.
Take `COc1cc(-c2cc3cn[nH]c3cc2Cl)cc2c1c(=O)n(-c1cncc(C)c1)c(=O)n2Cc1cc(F)c(F)c(C#N)c1` [Compound I-0166]: the 50% effective concentration (EC50) in assay [1] (setting [4]) is < 1000 nM. Moreover, the IC50 in assay [2] is < 100 nM.
In the case of `COc1cc(-c2cc3c(cc2Cl)NC(=O)C3)cc2c1c(=O)n(-c1cncc(C)c1)c(=O)n2Cc1cc(C#N)ccc1Cl` [Compound I-0167], in assay [1] (setting [3]), the half-maximal effective concentration (EC50) turned out to be 528 nM. Further, the IC50 in assay [2] turned out to be 1.9 nM.
In the case of `COc1cc(-c2cc(C#N)ccc2Cl)cc2c1c(=O)n(-c1cncc(C)c1)c(=O)n2Cc1cc(C#N)ccc1Cl` [Compound I-0168], the EC50 in assay [1] (setting [4]) was < 1000 nM. Besides, the IC50 in assay [2] was < 100 nM.
Take `COc1cc(-c2cc3cn[nH]c3cc2Cl)cc2c1c(=O)n(-c1cncc(C)c1)c(=O)n2Cc1cc(C#N)ccc1Cl` [Compound I-0170]: the EC50 in assay [1] (setting [4]) was < 1000 nM. In addition, in assay [2], the IC50 was < 100 nM.
The molecule `COc1cc(-c2cc(C(=O)NCCN(C)C)ccc2Cl)cc2c1c(=O)n(-c1cncc(C)c1)c(=O)n2Cc1ccc(F)c(C#N)c1` [Compound I-0190] yielded a half-maximal effective concentration (EC50) in assay [1] (setting [4]) of 1000 to 10000 nM. In addition, the IC50 in assay [2] was < 100 nM.
As for `COc1cc(-c2cc(C(=O)NCCO)ccc2Cl)cc2c1c(=O)n(-c1cncc(C)c1)c(=O)n2Cc1ccc(F)c(C#N)c1` [Compound I-0194], the EC50 in assay [1] (setting [4]) lay in the range of 1000 to 10000 nM. For the same molecule, in assay [2], the IC50 was < 100 nM.
The molecule `COCCNC(=O)c1ccc(Cl)c(-c2cc(OC)c3c(=O)n(-c4cncc(C)c4)c(=O)n(Cc4ccc(F)c(C#N)c4)c3c2)c1` [Compound I-0195] returned an EC50 in assay [1] (setting [4]) of 1000 to 10000 nM. The IC50 in assay [2] is < 100 nM.
Consider `COc1cc(-c2cc(C(=O)N(C)C)ccc2Cl)cc2c1c(=O)n(-c1cncc(C)c1)c(=O)n2Cc1ccc(F)c(C#N)c1` [Compound I-0200], for which the EC50 in assay [1] (setting [4]) was in the range of 1000 to 10000 nM. For the same molecule, the IC50 in assay [2] was < 100 nM.
Take `COc1cc(-c2cc(C(=O)N3CCN(C)CC3)ccc2Cl)cc2c1c(=O)n(-c1cncc(C)c1)c(=O)n2Cc1ccc(F)c(C#N)c1` [Compound I-0208]: the EC50 in assay [1] (setting [4]) is 1000 to 10000 nM. Besides, the IC50 in assay [2] is < 100 nM.
As for `COc1cc(-c2cc3c(cc2Cl)NC(=O)C3)cc2c1c(=O)n(Cc1ncn(C)n1)c(=O)n2Cc1cc(F)c(F)c(Cl)c1` [Compound I-0263], a half-maximal effect in assay [1] (setting [3]) (EC50) was put at 736 nM. In addition, the IC50 in assay [2] turned out to be 0.99 nM.
In the case of `COc1cc(-c2cc3cn[nH]c3cc2Cl)cc2c1c(=O)n(Cc1ncn(C)n1)c(=O)n2Cc1cc(F)c(F)c(Cl)c1` [Compound I-0264], in assay [1] (setting [3]), it took 349 nM to reach a half-maximal effect (EC50). Further, the IC50 in assay [2] is 2.6 nM.
Turning to `COc1cc(-c2cc3c(cc2Cl)NC(=O)C3)cc2c1c(=O)n(Cc1ncn(C)n1)c(=O)n2Cc1cc(Cl)c(F)cc1F` [Compound I-0266], the EC50 in assay [1] (setting [4]) was < 1000 nM. Besides, in assay [2], the IC50 was < 100 nM.
`COc1cc(-c2cc3c(cc2Cl)NC(=O)C3)cc2c1c(=O)n(Cc1ncn(C)n1)c(=O)n2Cc1cc(F)c(F)cc1F` [Compound I-0273] showed a concentration giving a half-maximal response (EC50) in assay [1] (setting [4]) of 1000 to 10000 nM. The IC50 in assay [2] is < 100 nM.
Taken in the same sequence, the figures for `Cn1cnc(Cn2c(=O)c3c(F)cc(-c4cc5c(cc4Cl)NC(=O)C5)cc3n(Cc3cc(F)c(F)cc3F)c2=O)n1` [Compound I-0280] were 1000 to 10000 nM and < 100 nM.
Consider `CC(=O)c1ccc(Cl)c(-c2ccc3c(=O)n(Cc4ccc[nH]c4=O)c(=O)n(Cc4cc(F)c(F)c(F)c4)c3c2)c1` [Compound I-0284], for which, in assay [1] (setting [4]), the EC50 lay within 1000 to 10000 nM. In assay [2], the IC50 is < 100 nM.
As to `CNC(=O)c1ccc(Cl)c(-c2ccc3c(=O)n(Cc4ccc[nH]c4=O)c(=O)n(Cc4cc(F)c(F)c(F)c4)c3c2)c1` [Compound I-0285], the EC50 in assay [1] (setting [4]) fell in the range of 1000 to 10000 nM. In addition, in assay [2], the IC50 was < 100 nM.
`CCOc1cc(-c2cc(C#N)ccc2Cl)cc2c1c(=O)n(-c1cncc(C)c1)c(=O)n2Cc1ccc(F)c(C#N)c1` [Compound I-0295] had an EC50 in assay [1] (setting [3]) of 426 nM. Besides, the IC50 in assay [2] worked out at 15 nM.
For the molecule `O=c1[nH]cccc1Cn1c(=O)c2ccc3ccccc3c2n(Cc2cc(F)c(F)c(F)c2)c1=O` [Compound I-0315], in assay [1] (setting [3]), the EC50 was 411 nM. Besides, the IC50 in assay [2] is 350 nM.
